Source: patent US9334256B2, “Agents and methods for treating ischemic and other diseases” (NoNO INC., priority 2011, dated 2016)

Molecular target: T1, TRPM7 (Mus musculus, UniProt Q923J1)
T1 construct: expressed in transfected cells; host or cells: HEK-293 tSA (HEK-293T) cells, transient transfection with Lipofectamine 2000
Assay: PI uptake cell death assay in TRPM7-expressing HEK-293 cells (type of assay from Example 1)
Assay type: cell-based, murine
Conditions: 5 μM; Table X; the lower the number, the more potent in protecting against cell death
From the text: The TRPM7 channel provides a pathway for mono- and divalent cations into the cell, and is unique in that it contains a functional C-terminal α-kinase domain. […] The induction of chemical anoxia in host cells such as recombinant HEK293 cells can be used to activate TRPM7. This activation is detectable with the use measurements of cellular calcium accumulation. This is achievable with the use of a fluorescent calcium indicator. Alternatively, this activation can also be measured using radiolabelled Ca2+ (^45Ca^2+) as described previously by Sattler et al. (Sattler et al., 1998) and Aarts et al. (Aarts et al., 2003).
Hoechst 33342 was purchased as a 10 mg/mL solution in water (Molecular Probes Inc., Eugene, Oreg.). Propidium iodide (PI) was purchased as a powder and prepared by dissolving in PBS at 1 mg/mL. PI solutions were stored at 4° C. until use. Hoechst and PI were added directly to cell culture to 5 μg/mL and 10 μg/mL respectively. Cells were incubated at room temperature or at 37° C. for 10 minutes to allow for adequate uptake, and fluorescence observed using a NIKON Eclipse TE2000 inverted microscope and TE-FM Epi-Fluorescence attachment (Nikon Canada).
Untransfected cells or cells transfected with the TRPM7/pTracer or ΔPDZ/pTracer construct were plated onto 24-well plates, 24-hours post-transfection. Untransfected cells were plated at 0.75×10^6 cells/well and transfected cells at 1×10^6 cells/well. The plates were coated with poly-D-lysine to strengthen cell adhesion and to minimize cell loss during washes. Cells were loaded by incubation with 5 μM fluo-3 AM and 0.02% pluronic in HBSS at 37° C. for 30 minutes. Following loading, cells were washed with an aglycaemic HBSS containing, in mM: 20 N-methyl-D-glucamine (NMDG), 121 NaCl, 5 KCl, 10 HEPES acid, 10 HEPES-Na salt, 3 NaHCO3, 1 Na-pyruvate, and 1.8 CaCl2, pH adjusted to 7.4 with HCl. Calcium uptake, as assessed by fluo-3 fluorescence, was measured in response to 0, 5, 10, 15, 20, or 25 mM sodium cyanide (NaCN; Mallinckrodt Baker Inc., Phillipsburg, N.J.) dissolved in aglycaemic HBSS. A 250 mM NaCN stock was prepared in water and stored at room temperature for up to 2 weeks. Measurements of fluo-3 fluorescence were taken over a 2 hour period at 10 minutes intervals at room temperature (22-25° C.). Calcium uptake assays were performed 48 hours post-transfection.
Cell death, as assessed by PI uptake, was examined at the end of the 2 hour calcium uptake assay. Cells were stained with 10 μg/mL PI and PI fluorescence measured using the Fluoroskan microplate reader (λ excitation=590 nm, λ emission=630 nm) and accompanying Ascent software (Thermo Electron Corp.). To obtain a reading of maximal fluorescence (Fmax), 0.5% Triton X-100 was added to each well and allowed to incubate for 20 minutes. Cell death assays were performed 48 hours post-transfection.
Data was entered into Excel (Microsoft, Seattle, Wash.) or SigmaPlot (SPSS Inc., Chicago, Ill.) for analysis. Pooled data are presented as the mean of at least 3 separate experiments±sem. Calcium uptake is expressed as a fraction of baseline uptake: ΔFt=(Ft−Fo)/Fo where Ft is the fluorescence at time t, and Fo is the fluorescence at baseline. Cell death is expressed as a percentage of total cell death: cell death (%)=Ft/Fmax×100 where Ft is the fluorescence at time t and Fmax is the maximal fluorescence obtained by permeabilization with Triton X-100. Concentration-response curves were fit by nonlinear regression with a 4 parameter logistic curve represented by the following equation: y=min+{(max−min)/[1+(x/EC50)n]} where y is the response at concentration x, min is the minimal response, max is the maximal response, EC50 is the concentration required for half-maximal response, and n is the Hill slope. Statistical analysis of data was carried out with a two-tailed Student's t test, or a one-way analysis of variance (ANOVA) followed by post hoc pairwise multiple comparisons testing using the Holm-Sidak method, where appropriate. […]

T1 sequence (Q923J1 whole entry): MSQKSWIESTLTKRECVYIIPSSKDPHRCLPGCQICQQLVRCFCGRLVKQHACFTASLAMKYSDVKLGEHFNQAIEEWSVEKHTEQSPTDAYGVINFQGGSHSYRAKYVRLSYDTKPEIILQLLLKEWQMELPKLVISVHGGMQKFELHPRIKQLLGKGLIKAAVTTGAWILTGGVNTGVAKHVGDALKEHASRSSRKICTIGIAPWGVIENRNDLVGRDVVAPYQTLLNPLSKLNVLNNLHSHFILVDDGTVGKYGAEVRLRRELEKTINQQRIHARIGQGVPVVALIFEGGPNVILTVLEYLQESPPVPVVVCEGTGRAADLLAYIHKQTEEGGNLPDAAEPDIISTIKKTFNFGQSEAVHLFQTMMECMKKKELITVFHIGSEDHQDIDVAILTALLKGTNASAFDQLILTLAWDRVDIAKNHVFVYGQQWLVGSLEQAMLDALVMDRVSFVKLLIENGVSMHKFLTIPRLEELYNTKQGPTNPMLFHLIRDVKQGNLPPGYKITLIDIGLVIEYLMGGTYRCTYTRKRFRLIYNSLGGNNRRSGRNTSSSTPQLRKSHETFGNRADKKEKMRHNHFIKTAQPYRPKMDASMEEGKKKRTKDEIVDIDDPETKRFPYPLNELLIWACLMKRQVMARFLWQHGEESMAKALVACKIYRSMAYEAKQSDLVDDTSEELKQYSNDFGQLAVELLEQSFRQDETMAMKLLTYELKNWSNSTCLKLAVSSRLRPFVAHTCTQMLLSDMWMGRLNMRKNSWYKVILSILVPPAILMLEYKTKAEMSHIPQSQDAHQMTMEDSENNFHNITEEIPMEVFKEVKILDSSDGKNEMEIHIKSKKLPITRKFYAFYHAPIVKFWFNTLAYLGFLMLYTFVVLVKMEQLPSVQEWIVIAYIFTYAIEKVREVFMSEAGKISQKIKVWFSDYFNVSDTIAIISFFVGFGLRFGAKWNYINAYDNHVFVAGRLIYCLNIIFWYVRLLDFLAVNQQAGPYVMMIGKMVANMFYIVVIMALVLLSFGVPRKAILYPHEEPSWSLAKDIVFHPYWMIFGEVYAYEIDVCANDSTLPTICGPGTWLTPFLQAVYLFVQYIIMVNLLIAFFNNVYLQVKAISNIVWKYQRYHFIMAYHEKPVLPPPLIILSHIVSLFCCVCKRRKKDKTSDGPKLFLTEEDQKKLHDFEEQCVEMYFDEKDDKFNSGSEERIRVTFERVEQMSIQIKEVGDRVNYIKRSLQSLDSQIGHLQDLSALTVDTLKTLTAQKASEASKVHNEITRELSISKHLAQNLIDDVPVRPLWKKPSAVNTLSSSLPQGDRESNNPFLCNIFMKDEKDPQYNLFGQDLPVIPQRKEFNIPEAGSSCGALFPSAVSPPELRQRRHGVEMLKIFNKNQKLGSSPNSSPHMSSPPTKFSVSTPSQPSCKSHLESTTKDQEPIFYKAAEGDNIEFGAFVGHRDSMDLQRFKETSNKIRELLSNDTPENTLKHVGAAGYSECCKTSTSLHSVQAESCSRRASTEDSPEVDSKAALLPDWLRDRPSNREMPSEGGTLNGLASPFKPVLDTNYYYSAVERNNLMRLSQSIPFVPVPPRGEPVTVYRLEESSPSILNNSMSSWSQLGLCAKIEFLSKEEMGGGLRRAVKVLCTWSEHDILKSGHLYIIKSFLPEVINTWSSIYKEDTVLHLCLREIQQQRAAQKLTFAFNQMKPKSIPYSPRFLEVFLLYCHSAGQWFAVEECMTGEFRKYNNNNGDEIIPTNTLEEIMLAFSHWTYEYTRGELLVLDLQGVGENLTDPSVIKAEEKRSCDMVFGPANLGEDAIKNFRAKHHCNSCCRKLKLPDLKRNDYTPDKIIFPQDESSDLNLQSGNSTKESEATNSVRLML

SMILES | Normalized ratio of PI uptake (5 μM)
O=C(NC1CCCc2ccccc21)c1sc2ccccc2c1Cl (centres unmarked) [Compound 97] | 0
Cc1cccc2sc(C3=NCCc4c(F)cccc43)c(Cl)c12 [Compound 117] | 0.02
COc1cc2c(cc1OC)C(c1sc3cc(OC)c(OC)cc3c1Cl)=NCC2 [Compound 120] | 0.079
COc1cc(OC)c2c(C)c(Cc3ccc(Cl)c(Cl)c3)c(=O)[nH]c2c1 [Compound 130] | 0.1
CCCc1c(Cc2ccc(Cl)c(Cl)c2)c(=O)[nH]c2cc(OC)cc(OC)c12 [Compound 132] | 0.73
Cc1c(Cc2c(F)cccc2Cl)c(=O)[nH]c2cc(O)cc(O)c12 [Compound 133] | 0.367
CCCc1c(Cc2cccc(Cl)c2)c(=O)[nH]c2cc(O)cc(O)c12 [Compound 134] | 0.564
CCCc1c(Cc2ccc(Cl)c(Cl)c2)c(=O)[nH]c2cc(O)cc(O)c12 [Compound 136] | 0.534
Cc1c(Cc2c(Cl)cccc2Cl)c(=O)[nH]c2cc(O)cc(O)c12 [Compound 137] | 0.575
COc1cc(OC)c2c(C)c(Cc3ccc(F)cc3)c(=O)[nH]c2c1 [Compound 138] | 0.034
Cc1c(Cc2cccc(Cl)c2)c(=O)[nH]c2cc(O)cc(O)c12 [Compound 140] | 0.487

Same assay, conditions: 10 μM; Table X; the lower the number, the more potent

SMILES | Normalized ratio of PI uptake (10 μM)
O=C(NC1CCCc2ccccc21)c1sc2ccccc2c1Cl (centres unmarked) [Compound 97] | 0.084
Cc1cccc2sc(C3=NCCc4c(F)cccc43)c(Cl)c12 [Compound 117] | 0.07
COc1cc2c(cc1OC)C(c1sc3cc(OC)c(OC)cc3c1Cl)=NCC2 [Compound 120] | 0.066
COc1cc(OC)c2c(C)c(Cc3ccc(Cl)c(Cl)c3)c(=O)[nH]c2c1 [Compound 130] | 0.06
CCCc1c(Cc2ccc(Cl)c(Cl)c2)c(=O)[nH]c2cc(OC)cc(OC)c12 [Compound 132] | 0.1
Cc1c(Cc2c(F)cccc2Cl)c(=O)[nH]c2cc(O)cc(O)c12 [Compound 133] | 0.123
CCCc1c(Cc2cccc(Cl)c2)c(=O)[nH]c2cc(O)cc(O)c12 [Compound 134] | 0.305
CCCc1c(Cc2ccc(Cl)c(Cl)c2)c(=O)[nH]c2cc(O)cc(O)c12 [Compound 136] | 0.238
Cc1c(Cc2c(Cl)cccc2Cl)c(=O)[nH]c2cc(O)cc(O)c12 [Compound 137] | 0.296
COc1cc(OC)c2c(C)c(Cc3ccc(F)cc3)c(=O)[nH]c2c1 [Compound 138] | 0.026
Cc1c(Cc2cccc(Cl)c2)c(=O)[nH]c2cc(O)cc(O)c12 [Compound 140] | 0.062

Same assay, conditions: Table X

SMILES | IC50
O=C(NC1CCCc2ccccc21)c1sc2ccccc2c1Cl (centres unmarked) [Compound 97] | 1.24 µM
Cc1cccc2sc(C3=NCCc4c(F)cccc43)c(Cl)c12 [Compound 117] | 1.67 µM
COc1cc2c(cc1OC)C(c1sc3cc(OC)c(OC)cc3c1Cl)=NCC2 [Compound 120] | 2.55 µM
COc1cc(OC)c2c(C)c(Cc3ccc(Cl)c(Cl)c3)c(=O)[nH]c2c1 [Compound 130] | 0.93 µM
CCCc1c(Cc2ccc(Cl)c(Cl)c2)c(=O)[nH]c2cc(OC)cc(OC)c12 [Compound 132] | 4.46 µM
Cc1c(Cc2c(F)cccc2Cl)c(=O)[nH]c2cc(O)cc(O)c12 [Compound 133] | 3.31 µM
CCCc1c(Cc2ccc(Cl)c(Cl)c2)c(=O)[nH]c2cc(O)cc(O)c12 [Compound 136] | 18.4 µM
Cc1c(Cc2c(Cl)cccc2Cl)c(=O)[nH]c2cc(O)cc(O)c12 [Compound 137] | 8.5 µM
COc1cc(OC)c2c(C)c(Cc3ccc(F)cc3)c(=O)[nH]c2c1 [Compound 138] | 0.47 µM
Cc1c(Cc2cccc(Cl)c2)c(=O)[nH]c2cc(O)cc(O)c12 [Compound 140] | 11.1 µM

Molecular target: T2, TRPM7 ion channel (Mus musculus, UniProt Q923J1)
T2 construct: expressed in transfected cells; host or cells: TRPM7-tet-on HEK293 cells
T2 sequence (Q923J1 whole entry): as above
Assay: Whole-cell patch clamp of TRPM7 currents in HEK293 cells
Assay type: cell-based
Conditions: value shown = concentration at which the compound significantly inhibits the ion channel
Experimental: To further understand the structure function relationships between the TRPM7 inhibitors identified in the TRPM7-dependent HEK death assay, the activity of a subset of these inhibitors described herein were tested for their ability to inhibit TRPM7 currents in cell systems. Whole-cell patch clamp recordings were used essentially as described to test the TRPM7 inhibitors in HEK293 cells, H9c2 cardiomyocytes and cultured neurons. […] Those that provide >10% inhibition of TRPM7 channel activity in the HEK293 cell system were labeled with the concentration tested (generally 5 uM). Thus, the compounds in this table marked with such a value are able to block the activity gof the TRPM7 ion channel. FIGS. 2A-C provide an example of this for the TRPM7 inhibitor 399 (Structure 9). […] Numbers in brackets indicate the number of independent tests, and the bars represent the SEM.
Whole-cell currents were recorded using an Axopatch 1D or MultiClamp 700B amplifier and were digitized at 10 kHz and low-pass filtered at 2 kHz, at room temperature. pClamp10 software was used for data acquisition and analysis. Patch electrodes were pulled from Borosilicate glass and fire polished to a resistance of 2-4 MΩ. All drugs were administrated directly to cell bodies under recording through the fast exchange perfusion system.
The intracellular solution (ICS) contains (mM) 145 Cs-methanesulfonate, 8 NaCl, l MgCl2, 4.1 CaCl2, 10 EGTA, and 10 HEPES, 5 ATP, pH at 7.4, with 300-305 mOsm. The extracellular solution (ECS) contains (mM) 140 NaCl, 5 KCl, 2 CaCl2, 20 HEPES, and 10 glucose, pH at 7.4 and with 315-320 mOsm.
Voltage stimuli lasting 250 ms were delivered at 5-s intervals with voltage ramps ranging from −100 to +100 mV. The current values at −80 mV and +80 mV on I-V curve represent the measures of inward and outward current respectively.
Table X and FIGS. 7-51 show screening data for several additional compounds that are variants of M5, M6 or M21. The synthesis of compounds of Table X and FIGS. 7-51 is shown in Appendices A-C. The compounds shown in FIGS. 7-51 can be related to the appropriate row of Table X by the compound number shown in the figures and in the first column of Table X. The compounds in Table X other than M5, M6 and M21 themselves, are believed to be novel. The Table provides a number identifying the compound, its structurer, molecular weight and its cluster (i.e., whether the compound resembles M5, M6 or M21). The three columns relations to PI uptake describe the results of screening the compounds in the type of assay from Example 1. […] The last two columns show an effect on proliferation of Weri retinoblastoma or HeLa cervical cancer cells. Inhibition of proliferation is a measure of anti-neoplastic activity. […] If no data is shown, no test was performed.

SMILES | TRPM7 current
O=C(NC1CCCc2ccccc21)c1sc2ccccc2c1Cl (centres unmarked) [Compound 97] | 5 μM (Those that provide >10% inhibition of TRPM7 channel activity in the HEK293 cell system were labeled with the concentration tested (generally 5 uM))
Cc1cccc2sc(C3=NCCc4c(F)cccc43)c(Cl)c12 [Compound 117] | 5 μM (Those that provide >10% inhibition of TRPM7 channel activity in the HEK293 cell system were labeled with the concentration tested (generally 5 uM))
COc1cc2c(cc1OC)C(c1sc3cc(OC)c(OC)cc3c1Cl)=NCC2 [Compound 120] | 5 μM (Those that provide >10% inhibition of TRPM7 channel activity in the HEK293 cell system were labeled with the concentration tested (generally 5 uM))
